The results in this text go back to patent US20160221921A1, “SKIN WHITENING AGENT CONTAINING NOVEL CYCLIC COMPOUND” (RNS CO.,LTD., priority 2013, published 2016).

Data set [1] deals with B-16 mouse melanoma cells. As to the kind of experiment: Melanin generation inhibitory effects in terms of cells. The class given is cell-based. Particulars: for inhibition at 20 µg/mL: 20 μg/ml.
The subject of data set [2] is B-16 mouse melanoma cells. The data set is described as above. The class given is cell-based. Conditions: 72 h, 5 μg/ml, cultured for 3 days, relative to control, read-out: Inhibition rate (%) of melanin generation. As for the experimental part: Each of the compounds prepared according to the procedures described in Examples 1 to 29 and hydroquinone were added to a culture solution containing B-16 mouse melanoma cells, followed by experiments to determine whitening effects in terms of cells (Lotan R., Lotan D. Cancer Res., 40, pp. 3345-3350, 1980). After treating the compounds to have final concentrations of […] and […], respectively, each of these compounds was added to a culture medium containing B-16 melanoma cells and cultured for 3 days. Then, these cells were treated using trypsin, separated from a culture vessel and centrifuged, then, melanin was extracted from the cells. Melanin was dissolved by adding 1 ml of 1N sodium hydroxide solution to the extract and subjected to measurement of absorbance at 475 nm, and an amount of the generated melanin was expressed by an absorbance per unit number of cells (10^6 cells) (this procedure was repeated three times). An amount of the generated melanin relative to control was calculated as an inhibition rate (%), and results thereof are shown in Table 1 below.

Data set [3] concerns B-16 mouse melanoma cells. Particulars: at 1 μg/ml or more.
Setting [4] is: Mus musculus, 72 h, cultured for 3 days, relative to control, read-out: Inhibition rate (%) of melanin generation.

Each structure is given as a SMILES string.

Turning to `CCOC(=O)c1ccccc1OCC` [Example 1, 2-ethoxy benzoic acid ethyl ester], in data set [1] (setting [4]), the inhibition at 20 µg/mL turned out to be 46%. Further, the inhibition at 5 µg/mL in data set [2] stood at 31%.

Turning to `CCCOC(=O)c1ccccc1OCCC` [Example 2, 2-propoxy benzoic acid propyl ester], the inhibition at 20 µg/mL in data set [1] (setting [4]) was 52%. Also, the inhibition at 5 µg/mL in data set [2] came to 41%.

On to `CCCCOC(=O)c1ccccc1OCCCC` [Example 3, 2-butoxy benzoic acid butyl ester], for which the inhibition at 20 µg/mL in data set [1] (setting [4]) was determined as 64%. Further, the inhibition at 5 µg/mL in data set [2] is 45%.

For `CCCCCOC(=O)c1ccccc1OCCCCC` [Example 4, 2-pentyloxy benzoic acid pentyl ester], in data set [1] (setting [4]), the inhibition at 20 µg/mL came to 65%. The inhibition at 5 µg/mL in data set [2] worked out at 54%.

Take `CCCCCCOC(=O)c1ccccc1OCCCCCC` [Example 5, 2-hexyloxy benzoic acid hexyl ester]: the inhibition at 20 µg/mL in data set [1] (setting [4]) was determined as 67%. For the same molecule, the inhibition at 5 µg/mL in data set [2] came out at 52%.

Regarding `CCCCCCCCOC(=O)c1ccccc1OCCCCCCCC` [Example 6, 2-octyloxy benzoic acid octyl ester], in data set [1] (setting [4]), the inhibition at 20 µg/mL was determined as 52%. Moreover, in data set [2], the inhibition at 5 µg/mL came to 41%.

On to `CCCCCCCCCCOC(=O)c1ccccc1OCCCCCCCCCC` [Example 7, 2-decyloxy benzoic acid decyl ester], for which the inhibition at 20 µg/mL in data set [1] (setting [4]) was 35%. Further, the inhibition at 5 µg/mL in data set [2] came out at 22%.

For `CCOC(=O)c1cccc(OCC)c1` [Example 8, 3-ethoxy benzoic acid ethyl ester], the inhibition at 20 µg/mL in data set [1] (setting [4]) is 42%. Also, the inhibition at 5 µg/mL in data set [2] worked out at 27%.

For `CCCOC(=O)c1cccc(OCCC)c1` [Example 9, 3-propoxy benzoic acid propyl ester], the inhibition at 20 µg/mL in data set [1] (setting [4]) was 48%. Moreover, in data set [2], the inhibition at 5 µg/mL turned out to be 29%.

As for `CCCCOC(=O)c1cccc(OCCCC)c1` [Example 10, 3-butoxy benzoic acid butyl ester], the inhibition at 20 µg/mL in data set [1] (setting [4]) was found to be 54%. For the same molecule, in data set [2], the inhibition at 5 µg/mL came out at 38%.

As to `CCCCCOC(=O)c1cccc(OCCCCC)c1` [Example 11, 3-pentyloxy benzoic acid pentyl ester], the inhibition at 20 µg/mL in data set [1] (setting [4]) worked out at 62%. Besides, the inhibition at 5 µg/mL in data set [2] amounted to 49%.

With `CCCCCCOC(=O)c1cccc(OCCCCCC)c1` [Example 12, 3-hexyloxy benzoic acid hexyl ester], the inhibition at 20 µg/mL in data set [1] (setting [4]) turned out to be 61%. Moreover, the inhibition at 5 µg/mL in data set [2] was found to be 46%.

As for `CCCCCCCCOC(=O)c1cccc(OCCCCCCCC)c1` [Example 13, 3-octyloxy benzoic acid octyl ester], in data set [1] (setting [4]), the inhibition at 20 µg/mL amounted to 41%. Further, the inhibition at 5 µg/mL in data set [2] was determined as 29%.

Consider `CCCCCCCCCCOC(=O)c1cccc(OCCCCCCCCCC)c1` [Example 14, 3-decyloxy benzoic acid decyl ester], for which the inhibition at 20 µg/mL in data set [1] (setting [4]) came out at 32%. Besides, the inhibition at 5 µg/mL in data set [2] came out at 21%.

Turning to `CCCCCOC(=O)c1cc(C(C)=O)ccc1OCCCCC` [Example 15, 5-acetyl-2-pentyloxy benzoic acid pentyl ester], the inhibition at 20 µg/mL in data set [1] (setting [4]) was determined as 57%. For the same molecule, the inhibition at 5 µg/mL in data set [2] stood at 39%.

Regarding `CCCCCOC(=O)c1ccc2ccccc2c1OCCCCC` [Example 16, 1-pentyloxy-2-naphthoic acid pentyl ester], the inhibition at 20 µg/mL in data set [1] (setting [4]) is 52%. Further, the inhibition at 5 µg/mL in data set [2] turned out to be 41%.

On to `CCCCCOC(=O)c1cc2ccccc2cc1OCCCCC` [Example 17, 3-pentyloxy-2-naphthoic acid pentyl ester], for which the inhibition at 20 µg/mL in data set [1] (setting [4]) amounted to 52%. The inhibition at 5 µg/mL in data set [2] turned out to be 38%.

On to `CCCCCOC(=O)c1ccncc1OCCCCC` [Example 18, 3-pentyloxy-4-pyridinecarboxylic acid pentyl ester], for which the inhibition at 20 µg/mL in data set [1] (setting [4]) is 71%. Besides, the inhibition at 5 µg/mL in data set [2] turned out to be 42%.

`CCCCCOC(=O)c1c(OCCCCC)cnc2ccccc12` [Example 19, 3-pentyloxy-quinoline-4-carboxylic acid pentyl ester]: the inhibition at 20 µg/mL in data set [1] (setting [4]) came out at 59%. In data set [2], the inhibition at 5 µg/mL stood at 38%.

As for `CCCCCOc1ccccc1C(C)=O` [Example 20, 1-(2-pentyloxy-phenyl)-ethanone], in data set [1] (setting [4]), the inhibition at 20 µg/mL is 41%. For the same molecule, the inhibition at 5 µg/mL in data set [2] was 24%.

With `CCCCCOc1cccc(C(C)=O)c1` [Example 21, 1-(3-pentyloxy-phenyl)-ethanone], the inhibition at 20 µg/mL in data set [1] (setting [4]) turned out to be 45%. For the same molecule, in data set [2], the inhibition at 5 µg/mL stood at 25%.

Turning to `CCCCCOc1cc2ccccc2cc1C(C)=O` [Example 22, 1-(3-pentyloxy-naphthalen-2-yl)-ethanone], the inhibition at 20 µg/mL in data set [1] (setting [4]) is 37%. Moreover, in data set [2], the inhibition at 5 µg/mL was found to be 19%.

For the molecule `CC(=O)Oc1ccccc1C(C)=O` [Example 23, acetic acid 2-acetyl-phenyl ester], the inhibition at 20 µg/mL in data set [1] (setting [4]) worked out at 41%. Further, in data set [2], the inhibition at 5 µg/mL was found to be 27%.

In the case of `CCCCC(CC)C(=O)Oc1ccccc1C(C)=O` (centres unmarked) [Example 24, 2-ethylhexanoic acid 2-acetyl-phenyl ester], the inhibition at 20 µg/mL in data set [1] (setting [4]) was determined as 38%. Also, in data set [2], the inhibition at 5 µg/mL is 19%.

Consider `CCCCCOc1ccccc1CCC` [Example 25, 1-pentyloxy-2-propyl-benzene], for which, in data set [1] (setting [4]), the inhibition at 20 µg/mL stood at 31%. Moreover, the inhibition at 5 µg/mL in data set [2] came to 16%.

Regarding `CCCCC(CC)C(=O)Oc1ccccc1CCC` (centres unmarked) [Example 26, 2-ethylhexanoic acid 2-propyl-phenyl ester], in data set [1] (setting [4]), the inhibition at 20 µg/mL was 35%. In addition, the inhibition at 5 µg/mL in data set [2] was determined as 24%.

Take `CCCCC(CC)C(=O)Oc1cccc(CCC)c1` (centres unmarked) [Example 27, 2-ethylhexanoic acid 3-propyl-phenyl ester]: the inhibition at 20 µg/mL in data set [1] (setting [4]) was determined as 41%. Moreover, in data set [2], the inhibition at 5 µg/mL worked out at 23%.

On to `CCCCC(CC)COC(=O)c1ccccc1O` (centres unmarked) [Example 28, 2-hydroxy benzoic acid 2-ethylhexyl ester], for which the inhibition at 20 µg/mL in data set [1] (setting [4]) is 39%. The inhibition at 5 µg/mL in data set [2] amounted to 27%.

Consider `CCCCC(CC)COC(=O)c1cccc(O)c1` (centres unmarked) [Example 29, 3-hydroxy benzoic acid 2-ethylhexyl ester], for which, in data set [1] (setting [4]), the inhibition at 20 µg/mL was found to be 37%. Further, the inhibition at 5 µg/mL in data set [2] amounted to 26%.

As for `Oc1ccc(O)cc1` [Hydroquinone, hydroquinone, reference compound], the “Inhibition rate (%) of melanin generation” value in data set [1] (5 μg/ml, cultured for 3 days, relative to control) was “Apoptosis”. Further, the inhibition at 1 µg/mL in data set [1] (Mus musculus, 72 h, 1 μg/ml, cultured for 3 days, relative to control, read-out: Inhibition rate (%) of melanin generation) was 48%. Besides, the “melanin generation inhibitory effects (in words)” value in data set [1] (cultured mouse melanoma cells) is “strong effects of inhibiting melanin generation at a low concentration”. Moreover, the cytotoxicity result in data set [3] is listed as “serious cytotoxicity”.
